{"source": "patent US20240124417A1", "about": "“COMPOUNDS USEFUL AS IMMUNOMODULATORS” (Bristol-Myers Squibb Company, priority 2019, published 2024)", "data": [{"biological_target": "T1, PD-1/PD-L1 (Homo sapiens, UniProt Q9NZQ7)", "T1 construct": "TVMV protease site linker (C); made in house; host or cells: HEK293T cells", "T1 sequence (Q9NZQ7 18-239)": "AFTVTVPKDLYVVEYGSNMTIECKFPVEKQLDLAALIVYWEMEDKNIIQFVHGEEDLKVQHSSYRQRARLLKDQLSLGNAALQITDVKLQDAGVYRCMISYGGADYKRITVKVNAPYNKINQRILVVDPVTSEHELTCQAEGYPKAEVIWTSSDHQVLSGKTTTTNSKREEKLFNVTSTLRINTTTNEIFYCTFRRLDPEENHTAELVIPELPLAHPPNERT", "experiment": "PD-1/PD-L1 Homogenous Time-Resolved Fluorescence (HTRF) binding assay", "conditions": "PD-L1-His 10 nM, PD-1-Ig 20 nM", "source_text": "The ability of the compounds of the invention to bind to PD-L1 was investigated using a PD-1/PD-L1 Homogenous Time-Resolved Fluorescence (HTRF) binding assay.\nHomogenous Time-Resolved Fluorescence (HTRF) binding assay.\nThe interaction of PD-1 and PD-L1 can be assessed using soluble, purified preparations of the extracellular domains of the two proteins. The PD-1 and PD-L1 protein extracellular domains were expressed as fusion proteins with detection tags, for PD-1, the tag was the Fc portion of Immunoglobulin (PD-1-Ig) and for PD-L1 it was the 6 histidine motif (PD-L1-His). All binding studies were performed in an HTRF assay buffer consisting of dPBS supplemented with 0.1% […] bovine serum albumin and 0.05% (v/v) Tween-20. For the h/PD-L1-His binding assay, inhibitors were pre-incubated with PD-L1-His (10 nM final) for 15 m in 4 μl of assay buffer, followed by addition of PD-1-Ig (20 nM final) in 1 μl of assay buffer and further incubation for 15 m. HTRF detection was achieved using europium crypate-labeled anti-Ig (1 nM final) and allophycocyanin (APC) labeled anti-His (20 nM final). Antibodies were diluted in HTRF detection buffer and 5 μl was dispensed on top of the binding reaction. […] Additional binding assays were established between the human proteins PD-1-Ig/PD-L2-His (20 & 5 nM, respectively) and CD80-His/PD-L1-Ig (100 & 10 nM, respectively). […]", "units": {"IC50": "nM"}, "values": [{"smiles": "Cc1c(COc2cc(OCc3cncc(C#N)c3)c(CNCc3cocn3)cc2Cl)cccc1-c1cccc(OCCCN2CC[C@@H](O)C2)c1C", "note": "[Example 2539, (R)-5-((4-chloro-5-((3′-(3-(3-hydroxypyrrolidin-1-yl)propoxy)-2,2′-dimethyl-[1,1′-biphenyl]-3-yl)methoxy)-2-(((oxazol-4-ylmethyl)amino)methyl)phenoxy)methyl)nicotinonitrile]", "IC50": 0.7}, {"smiles": "CC(=O)NC1CCN(CCCOc2cccc(-c3cccc(COc4cc(OCc5cncc(C#N)c5)c(CNCCc5nnnn5C)cc4Cl)c3C)c2C)CC1", "note": "[Example 1049, N-(1-(3-((3′-((2-Chloro-5-((5-cyanopyridin-3-yl)methoxy)-4-(((2-(1-methyl-1H-tetrazol-5-yl)ethyl)amino)methyl)phenoxy)methyl)-2,2′-dimethyl-[1,1′-biphenyl]-3-yl)oxy)-propyl)piperidin-4-yl)acetamide]", "IC50": 2.5}, {"smiles": "CC(=O)NC1CCN(CCCOc2cccc(-c3cccc(COc4cc(OCc5cncc(C#N)c5)c(CN5CCCC(c6nnc[nH]6)C5)cc4Cl)c3C)c2C)CC1", "note": "(stereo not shown) [Example 1039, N-(1-(3-((3′-((4-((3-(4H-1,2,4-Triazol-3-yl)piperidin-1-yl)methyl)-2-chloro-5-((5-cyano-pyridin-3-yl)methoxy)phenoxy)methyl)-2,2′-dimethyl-[1,1′-biphenyl]-3-yl)oxy)propyl)-piperidin-4-yl)acetamide]", "IC50": 2.7}, {"smiles": "Cc1ncsc1CCN(C)Cc1cc(Cl)c(OCc2cccc(-c3cccc(OCCCN4CC[C@@H](O)C4)c3C)c2C)cc1OCc1cncc(C#N)c1", "note": "[Example 2511, (R)-5-((4-chloro-5-((3′-(3-(3-hydroxypyrrolidin-1-yl)propoxy)-2,2′-dimethyl-[1,1′-biphenyl]-3-yl)methoxy)-2-((methyl(2-(4-methylthiazol-5-yl)ethyl)amino)methyl)phenoxy)methyl)nicotinonitrile]", "IC50": 3.3}, {"smiles": "Cc1c(COc2cc(OCc3cncc(C#N)c3)c(CN(C)Cc3nc4ccccc4n3Cc3ccccc3)cc2Cl)cccc1-c1cccc(OCCCN2CC[C@@H](O)C2)c1C", "note": "[Example 2561, (R)-5-((2-((((1-benzyl-1H-benzo[d]imidazol-2-yl)methyl)(methyl)amino)methyl)-4-chloro-5-((3′-(3-(3-hydroxypyrrolidin-1-yl)propoxy)-2,2′-dimethyl-[1,1′-biphenyl]-3-yl)methoxy)phenoxy)methyl)nicotinonitrile]", "IC50": 746}, {"smiles": "CC(=O)NC1CCN(CCCOc2cccc(-c3cccc(COc4cc(OCc5cncc(C#N)c5)c(CNCC(C)c5nnn[nH]5)cc4Cl)c3C)c2C)CC1", "note": "(stereo not shown) [Example 1050, N-(1-(3-((3′-((4-(((2-(1H-Tetrazol-5-yl)propyl)amino)methyl)-2-chloro-5-((5-cyano-pyridin-3-yl)methoxy)phenoxy)methyl)-2,2′-dimethyl-[1,1′-biphenyl]-3-yl)oxy)propyl)-piperidin-4-yl)acetamide]", "IC50": 0.7}, {"smiles": "Cc1c(COc2cc(OCc3cncc(C#N)c3)c(CN(C)CCc3nc4cc(Cl)ccc4[nH]3)cc2Cl)cccc1-c1cccc(OCCCN2CC[C@@H](O)C2)c1C", "note": "[Example 2517, (R)-5-((4-chloro-2-(((2-(5-chloro-1H-benzo[d]imidazol-2-yl)ethyl)(methyl)amino)methyl)-5-((3′-(3-(3-hydroxypyrrolidin-1-yl)propoxy)-2,2′-dimethyl-[1,1′-biphenyl]-3-yl)methoxy)phenoxy)methyl)nicotinonitrile]", "IC50": 12.4}, {"smiles": "Cc1c(COc2cc(OCc3cncc(C#N)c3)c(CNCc3nc4ccccc4s3)cc2Cl)cccc1-c1cccc(OCC2CCCN(C)C2)c1Cl", "note": "(stereo not shown) [Example 2611, 5-((2-(((benzo[d]thiazol-2-ylmethyl)amino)methyl)-4-chloro-5-((2′-chloro-2-methyl-3′-((1-methylpiperidin-3-yl)methoxy)-[1,1′-biphenyl]-3-yl)methoxy)phenoxy)methyl)nicotinonitrile]", "IC50": 5.9}, {"smiles": "Cc1c(COc2cc(OCc3cncc(C#N)c3)c(CNCc3cnco3)cc2Cl)cccc1-c1cccc(OCCCN2CC[C@@H](O)C2)c1C", "note": "[Example 2547, (R)-5-((4-chloro-5-((3′-(3-(3-hydroxypyrrolidin-1-yl)propoxy)-2,2′-dimethyl-[1,1′-biphenyl]-3-yl)methoxy)-2-(((oxazol-5-ylmethyl)amino)methyl)phenoxy)methyl)nicotinonitrile]", "IC50": 2.5}, {"smiles": "Cc1c(COc2cc(OCc3cncc(C#N)c3)c(CNCc3ccnc(C#N)n3)cc2Cl)cccc1-c1cccc(OCCCN2CC[C@@H](O)C2)c1C", "note": "[Example 2040, (R)-4-(((5-chloro-2-((5-cyanopyridin-3-yl)methoxy)-4-((3′-(3-(3-hydroxypyrrolidin-1-yl)propoxy)-2,2′-dimethyl-[1,1′-biphenyl]-3-yl)methoxy)benzyl)amino)methyl)pyrimidine-2-carbonitrile]", "IC50": 8.2}, {"smiles": "Cc1c(COc2cc(OCc3cncc(C#N)c3)c(CN(C)Cc3nnn[nH]3)cc2Cl)cccc1-c1cccc(OCCCN2CC[C@@H](O)C2)c1C", "note": "[Example 1016, (R)-5-((2-((((1H-Tetrazol-5-yl)methyl)(methyl)amino)methyl)-4-chloro-5-((3′-(3-(3-hydroxypyrrolidin-1-yl)propoxy)-2,2′-dimethyl-[1,1′-biphenyl]-3-yl)methoxy)phenoxy)-methyl)nicotinonitrile]", "IC50": 1.9}, {"smiles": "Cc1c(COc2cc(OCc3cncc(C#N)c3)c(CNCc3cc(C)n(C)n3)cc2Cl)cccc1-c1cccc(OCCCN2CC[C@@H](O)C2)c1C", "note": "[Example 2536, (R)-5-((4-chloro-2-((((1,5-dimethyl-1H-pyrazol-3-yl)methyl)amino)methyl)-5-((3′-(3-(3-hydroxypyrrolidin-1-yl)propoxy)-2,2′-dimethyl-[1,1′-biphenyl]-3-yl)methoxy)phenoxy)methyl)nicotinonitrile]", "IC50": 7.4}, {"smiles": "Cc1c(COc2cc(OCc3cncc(C#N)c3)c(CN(C)Cc3ncc[nH]3)cc2Cl)cccc1-c1cccc(OCCCN2CCC(O)(CO)CC2)c1Cl", "note": "[Example 2015, 5-((2-((((1H-imidazol-2-yl)methyl)(methyl)amino)methyl)-4-chloro-5-((2′-chloro-3′-(3-(4-hydroxy-4-(hydroxymethyl)piperidin-1-yl)propoxy)-2-methyl-[1,1′-biphenyl]-3-yl)methoxy)phenoxy)methyl)nicotinonitrile]", "IC50": 3.1}, {"smiles": "Cc1cc(CN(C)Cc2cc(Cl)c(OCc3cccc(-c4cccc(OCCCN5CC[C@@H](O)C5)c4C)c3C)cc2OCc2cncc(C#N)c2)no1", "note": "[Example 2529, (R)-5-((4-chloro-5-((3′-(3-(3-hydroxypyrrolidin-1-yl)propoxy)-2,2′-dimethyl-[1,1′-biphenyl]-3-yl)methoxy)-2-((methyl((5-methylisoxazol-3-yl)methyl)amino)methyl)phenoxy)methyl)nicotinonitrile]", "IC50": 1.1}, {"smiles": "CCN(CCO)CCCOc1cccc(-c2cccc(COc3cc(OCc4cncc(C#N)c4)c(CNCc4c[nH]cn4)cc3Cl)c2C)c1C", "note": "[Example 2033, 5-((2-((((1H-imidazol-4-yl)methyl)amino)methyl)-4-chloro-5-((3′-(3-(ethyl(2-hydroxyethyl)amino)propoxy)-2,2′-dimethyl-[1,1′-biphenyl]-3-yl)methoxy)phenoxy)methyl)nicotinonitrile]", "IC50": 2.9}, {"smiles": "Cc1c(COc2cc(OCc3cncc(C#N)c3)c(CNCCc3cscn3)cc2Cl)cccc1-c1cccc(OCC2CCCN(C)C2)c1Cl", "note": "(stereo not shown) [Example 2598, 5-((4-chloro-5-((2′-chloro-2-methyl-3′-((1-methylpiperidin-3-yl)methoxy)-[1,1′-biphenyl]-3-yl)methoxy)-2-(((2-(thiazol-4-yl)ethyl)amino)methyl)phenoxy)methyl)nicotinonitrile]", "IC50": 1}, {"smiles": "Cc1c(COc2cc(OCc3cncc(C#N)c3)c(CNCc3c[nH]cn3)cc2Cl)cccc1-c1cccc(OCC2CCCN(CCC(F)(F)F)C2)c1Cl", "note": "(stereo not shown) [Example 2065, 5-((2-((((1H-imidazol-4-yl)methyl)amino)methyl)-4-chloro-5-((2′-chloro-2-methyl-3′-((1-(3,3,3-trifluoropropyl)piperidin-3-yl)methoxy)-[1,1′-biphenyl]-3-yl)methoxy)phenoxy)methyl)nicotinonitrile]", "IC50": 28}, {"smiles": "Cc1c(COc2cc(OCc3cncc(C#N)c3)c(CNCc3cc4ccccn4n3)cc2Cl)cccc1-c1cccc(OCCCN2CC[C@@H](O)C2)c1C", "note": "[Example 2537, (R)-5-((4-chloro-5-((3′-(3-(3-hydroxypyrrolidin-1-yl)propoxy)-2,2′-dimethyl-[1,1′-biphenyl]-3-yl)methoxy)-2-(((pyrazolo[1,5-a]pyridin-2-ylmethyl)amino)methyl)phenoxy)methyl)nicotinonitrile]", "IC50": 6.5}, {"smiles": "Cc1n[nH]c(C)c1C(NCc1cc(Cl)c(OCc2cccc(-c3cccc(OCC4CCCN(C)C4)c3Cl)c2C)cc1OCc1cncc(C#N)c1)C(=O)O", "note": "(stereo not shown) [Example 1027, 2-((5-Chloro-4-((2′-chloro-2-methyl-3′-((1-methylpiperidin-3-yl)methoxy)-[1,1′-biphenyl]-3-yl)methoxy)-2-((5-cyanopyridin-3-yl)methoxy)benzyl)amino)-2-(3,5-dimethyl-1H-pyrazol-4-yl)acetic acid]", "IC50": 1.1}]}]}
